Target: RAC-alpha serine/threonine-protein kinase (Homo sapiens, UniProt P31749)
Test: Inhibition of AKT phosphorylation in human OVCAR-8 cells assessed as reduction in pAKT level incubated for 24 hrs by Western blot analysis

Sequence of RAC-alpha serine/threonine-protein kinase (P31749 whole entry): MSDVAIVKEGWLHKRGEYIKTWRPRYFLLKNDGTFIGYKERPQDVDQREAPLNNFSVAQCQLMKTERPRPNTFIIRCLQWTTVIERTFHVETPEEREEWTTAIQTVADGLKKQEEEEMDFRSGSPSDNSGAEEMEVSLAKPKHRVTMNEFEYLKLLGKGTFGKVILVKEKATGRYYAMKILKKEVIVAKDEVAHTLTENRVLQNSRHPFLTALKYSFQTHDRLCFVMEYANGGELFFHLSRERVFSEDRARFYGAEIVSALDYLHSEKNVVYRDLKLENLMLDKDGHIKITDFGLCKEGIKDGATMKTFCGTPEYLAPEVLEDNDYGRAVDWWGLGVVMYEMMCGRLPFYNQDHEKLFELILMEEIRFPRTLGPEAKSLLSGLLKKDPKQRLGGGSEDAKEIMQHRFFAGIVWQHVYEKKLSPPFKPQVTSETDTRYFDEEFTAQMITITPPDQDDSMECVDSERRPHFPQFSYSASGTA

| IC50 [nM] | Structure (SMILES) |
| --- | --- |
| 40 | O=C1NC(=O)C(Cc2ccc3nccc(-c4ccncc4)c3c2)S1 (centres undefined) |
| 76 | c1cc(-c2ccnc3ccc(-c4cnc5[nH]ncc5c4)cc23)ccn1 |
| 49 | Nc1ncc(-c2ccc3nccc(-c4ccncc4)c3c2)cc1S(N)(=O)=O |
| 7 | O=S(=O)(Nc1cncc(-c2ccc3nccc(-c4ccncc4)c3c2)c1)c1ccccc1F |

— BindingDB's records for PubMed 37683364 (Institute of Respiratory Health)
